Test results published in US20260007601A1, “IONIZABLE CATIONIC LIPID COMPOUND AND COMPOSITION FOR DELIVERING NUCLEIC ACID AND USE THEREOF” (BEIJING YOUCAREKECHUANG PHARMACEUTICAL TECHNOLOGY CO., LTD., priority 2023, published 2026).
Values belong to the molecule of their own block, whether it stands above or below them.

Tests used:
[1] = Particle size and polydispersity index (PDI) of nanolipid particles, dynamic light scattering; assay type: physicochemical; conditions: LNP formulation prepared from the named cationic lipid, 25° C
Description: The particle size and polydispersity index (PDI) were determined by dynamic light scattering method using a Malvern laser particle size analyzer. 10 μL of liposome solution was diluted to 1 mL with RNase-free deionized water and added to a sample pool. Each sample was measured three times. The measurement conditions were: 90° scattering angle, 25° C.

[2] = Encapsulation rate, drug loading concentration and total RNA concentration detection (RiboGreen); assay type: physicochemical; conditions: for Drug loading concentration / Encapsulation rate / Total RNA concentration: LNP formulation of the named lipid
Source text: Encapsulation rate is a key quality attribute of liposomes. It refers to the percentage of drug content encapsulated in the lipid bilayer to the total amount of drug added, which can reflect the degree of drug encapsulation in liposomes. The Chinese Pharmacopoeia stipulates that the encapsulation rate should usually not be less than 80%.
The drug loading capacity is the ratio of the amount of drug in the liposome to the total amount of drug and carrier in the liposome. The drug loading capacity directly affects the clinical application dose of the drug, so the larger the drug loading capacity, the more it can meet clinical needs. The drug loading concentration is proportional to the drug loading capacity, and the relative proportion of the drug loading concentration can represent the relative proportion of the drug loading capacity. The relative proportion of the total RNA concentration can represent the relative proportion of the amount of mRNA carried by the LNP formulation.
1×TE buffer, 0.1% Triton X-100 buffer, and RiboGreen reagent (1:200) and mRNA standard stock solution were prepared.
An appropriate amount of sample was taken and added to an appropriate amount of 1×TE buffer, which was diluted to a solution containing about 2.8 μg of the test sample per 1 mL. Then the sample was added to a 96-well plate, where 50 μL of the diluted test sample or mRNA standard stock solution was added to each well, and then added with 1×TE buffer and 0.1% Triton X-100 buffer. The samples were incubated at 37° C. for 10 minutes, and 100 μL of RiboGreen reagent (1:200) was added to each well of the 96-well plate. The plate was centrifuged, and read using an ELISA reader, and the data was processed.

293T cells [3] = test: Fluorescence detection of Fluc-mRNA (cell transfection efficiency of LNP formulations); assay type: cell-based; conditions: for Relative light unit (RLU): LNP containing 0.3 μg Fluc-mRNA, 24 hours; for Multiples of values that equivalent to YK-201: RLU of YK-201 / RLU of the named lipid; for Multiples of values that equivalent to YK-202: RLU of YK-202 / RLU of the named lipid; for Ratio relative to SM-102: RLU of the named lipid / RLU of SM-102, times that of SM-102; for Multiples of values that equivalent to YK-209: RLU of YK-209 / RLU of the named lipid
Description: (§1) Cell recovery and passaging: 293T cells were recovered and cultured in culture dishes to the required cell number.
(§2) Plating: The cells in the culture dish were digested, counted, plated in a 96-well plate at 10,000 cells per well, or in a 12-well plate at 150,000 cells per well, and cultured overnight until the cells adhered to the wall.
(§3) Cell recovery and passage: The method was the same as in Example 3.
(§4) Plating: The method was the same as Example 3.
The LNP formulation containing 0.3 μg Fluc-mRNA (prepared according to Example 4, the LNP formulation carrier components were cationic lipids, neutral lipids, structured lipids and polymer-conjugated lipids at a molar ratio of 49:10:39.5:1.5, and the cationic lipids were cationic lipids listed in Table 1) was added to the cell culture medium of a 96-well plate, and cultured for 24 hours. After that, the corresponding reagents were added according to the instructions of the Gaussia Luciferase Assay Kit, and the fluorescence expression intensity of each well was detected by the IVIS fluorescence detection system. This experiment verified the transfection efficiency of the LNP formulation in the cell, and the specific detection results are shown in Tables 6-9.

293T cells [4] = test: Cell survival rate assay (CCK-8); assay type: cell-based; conditions: for Cell survival rate: LNP containing 1.5 μg Fluc-mRNA, 24 hours, CCK-8
Description: as §1, §2, §3, §4
The LNP formulations containing 1.5 μg Fluc-mRNA (prepared according to Example 4, the LNP formulation carrier components are cationic lipids, neutral lipids, structured lipids and polymer-conjugated lipids at a molar ratio of 49:10:39.5:1.5, wherein the cationic lipids are the cationic lipids listed in Table 1) and the Lipofectamine 3000 formulation were added to the cell culture medium of the 96-well plate, and the culture was continued for 24 hours. Then, 10 μL of CCK-8 solution was added to each well, and the culture plate was incubated in the incubator for 1 hour, and the absorbance at 450 nm was measured by a microplate reader.

female BALB/C mice = test: Mouse in vivo imaging of Fluc-mRNA LNP formulations; parameters: average radiation intensity (mRNA expression): unit not given here; conditions: for average radiation intensity (mRNA expression): 10 μg Fluc-mRNA LNP intramuscularly
Description: The LNP formulation containing 10 μg Fluc-mRNA (prepared according to Example 4) was injected intramuscularly into female BALB/C mice aged 4 to 6 weeks and weighing 17 to 19 g, and the mice were intraperitoneally injected with fluorescent imaging substrates at specific time points (6 h, 24 h, 48 h and 7 d) after administration. The mice moved freely for 5 minutes, and then the average radiation intensity (corresponding to the fluorescence expression intensity) of the protein expressed by the mRNA carried by the LNP in the mice was detected by IVIS Spectrum small animal in vivo imager. The test results are shown in Tables 14 to 17 and FIGS. 12 to 14.

PDI [1]: 15.1%
Particle size [1]: 135 nm
Drug loading concentration [2]: 30.6 µg/mL
Encapsulation rate [2]: 60.5%
Total RNA concentration [2]: 37.84 µg/mL
SMILES: CCCCCCCCCCCCC(O)CN(C)CCCCCC(=O)OCC(CCCCCC)CCCCCCCC (stereo not drawn) [HHMA, reference compound]
Relative light unit (RLU) (293T cells [3]): 2099714 RLU
Multiples of values that equivalent to YK-201 (293T cells [3]): 13.56
Multiples of values that equivalent to YK-202 (293T cells [3]): 14.27
Ratio relative to SM-102 (293T cells [3]): 1.26
Cell survival rate (293T cells [4]): 65.56%
average radiation intensity (mRNA expression) (female BALB/C mice; 6 h): 638870
average radiation intensity (mRNA expression) (female BALB/C mice; 24 h): 109650
average radiation intensity (mRNA expression) (female BALB/C mice; 48 h): 29445
average radiation intensity (mRNA expression) (female BALB/C mice; 7 d): 5312

PDI [1]: 17.9%
Particle size [1]: 210 nm
Drug loading concentration [2]: 42.19 µg/mL
Encapsulation rate [2]: 90.4%
Total RNA concentration [2]: 46.66 µg/mL
SMILES: CCCCCCCCCCOC(=O)CCCN(CCCCCC(=O)OCCC(CCCCCC)CCCCCC)CCOC(=O)SCCCN(C)C [YK-217, 3-hexylnonyl-11-(4-(decyloxy)-4-oxobutyl)-2-methyl-7-oxo-8-oxo-6-thio-2,11-diazaheptane-17-carboxylate]
Relative light unit (RLU) (293T cells [3]): 71850 RLU
Multiples of values that equivalent to YK-201 (293T cells [3]): 396.42
Multiples of values that equivalent to YK-202 (293T cells [3]): 416.94
Multiples of values that equivalent to YK-209 (293T cells [3]): 293.09
Ratio relative to SM-102 (293T cells [3]): 0.04
Cell survival rate (293T cells [4]): 42.27%
average radiation intensity (mRNA expression) (female BALB/C mice; 6 h): 24585
average radiation intensity (mRNA expression) (female BALB/C mice; 24 h): 2650
average radiation intensity (mRNA expression) (female BALB/C mice; 48 h): 1024
average radiation intensity (mRNA expression) (female BALB/C mice; 7 d): 523

SMILES: CCCCCCCCCCCOC(=O)CCCCCN(CCCCCCCC(=O)OC(CCCCCCC)CCCCCCC)CCN(C)CCO [YK-206]
PDI [1]: 18.8%
Particle size [1]: 216 nm
drug loading concentration, times that of ALC-0315 [2]: 1.46 times
drug loading concentration, times that of HHMA [2]: 1.24 times
drug loading concentration, times that of SM-102 [2]: 1.50 times
drug loading concentration, times that of YK-009 [2]: 1.42 times
drug loading concentration, times that of compound 21 [2]: 1.69 times
drug loading concentration, times that of compound 23 [2]: 1.84 times
total RNA concentration, times that of ALC-0315 [2]: 1.12 times
total RNA concentration, times that of HHMA [2]: 1.10 times
total RNA concentration, times that of SM-102 [2]: 1.18 times
total RNA concentration, times that of YK-009 [2]: 1.08 times
total RNA concentration, times that of compound 21 [2]: 1.36 times
total RNA concentration, times that of compound 23 [2]: 1.28 times
Drug loading concentration [2]: 38.09 µg/mL
Encapsulation rate [2]: 91.4%
Total RNA concentration [2]: 41.69 µg/mL
encapsulation rate higher than that of ALC-0315 ([2]; difference of rates): 28.60%
encapsulation rate higher than that of HHMA ([2]; difference of rates): 30.90%
encapsulation rate higher than that of SM-102 ([2]; difference of rates): 29.10%
encapsulation rate higher than that of YK-009 ([2]; difference of rates): 28.40%
encapsulation rate higher than that of compound 21 ([2]; difference of rates): 33.60%
encapsulation rate higher than that of compound 23 ([2]; difference of rates): 36.20%
RLU / cell transfection efficiency, times that of ALC-0315 (293T cells [3]; Fluc-mRNA LNP): 9 times
RLU / cell transfection efficiency, times that of HHMA (293T cells [3]; Fluc-mRNA LNP): 10 times
RLU / cell transfection efficiency, times that of Lipofectamine 3000 (293T cells [3]; Fluc-mRNA LNP): 17 times
RLU / cell transfection efficiency, times that of YK-009 (293T cells [3]; Fluc-mRNA LNP): 4 times
RLU / cell transfection efficiency, times that of compound 21 (293T cells [3]; Fluc-mRNA LNP): 14 times
RLU / cell transfection efficiency, times that of compound 23 (293T cells [3]; Fluc-mRNA LNP): 15 times
fluorescence absorption value / cell transfection efficiency, times that of YK-205 (293T cells [3]; Fluc-mRNA LNP): 20.29 times
Relative light unit (RLU) (293T cells [3]): 21058746 RLU
Multiples of values that equivalent to YK-201 (293T cells [3]): 1.35
Multiples of values that equivalent to YK-202 (293T cells [3]): 1.42
Multiples of values that equivalent to YK-209 (293T cells [3]): 1.28
Cell survival rate (293T cells [4]): 74.57%
cell survival rate higher than that of ALC-0315 (293T cells [4]; difference of rates): 24.61%
cell survival rate higher than that of HHMA (293T cells [4]; difference of rates): 9.01%
cell survival rate higher than that of Lipofectamine 3000 (293T cells [4]; difference of rates): 51.52%
cell survival rate higher than that of SM-102 (293T cells [4]; difference of rates): 6.02%
cell survival rate higher than that of compound 21 (293T cells [4]; difference of rates): 5.55%
cell survival rate higher than that of compound 23 (293T cells [4]; difference of rates): 4.47%
average radiation intensity (mRNA expression) (female BALB/C mice; 6 h): 2068900
average radiation intensity (mRNA expression) (female BALB/C mice; 24 h): 1553050
average radiation intensity (mRNA expression) (female BALB/C mice; 48 h): 500150
average radiation intensity (mRNA expression) (female BALB/C mice; 7 d): 23015
mRNA expression level in mice can reach, times that of ALC-0315 (female BALB/C mice; time point not stated): 13 times
mRNA expression level in mice can reach, times that of HHMA (female BALB/C mice; time point not stated): 16 times
mRNA expression level in mice can reach, times that of SM-102 (female BALB/C mice; time point not stated): 16 times
mRNA expression level in mice can reach, times that of compound 21 (female BALB/C mice; time point not stated): 16 times
mRNA expression level in mice can reach, times that of compound 23 (female BALB/C mice; time point not stated): 16 times

PDI [1]: 8.6%
Particle size [1]: 138 nm
Drug loading concentration [2]: 20.7 µg/mL
Encapsulation rate [2]: 55.2%
Total RNA concentration [2]: 32.51 µg/mL
SMILES: CCCCCCC(CCCCCC)CCOC(=O)CCCCCCCN(CCO)CCCCCCCC(=O)OCCC(CCCCCC)CCCCCC [Compound 23, bis(3-hexylnonyl)8,8′-((2-hydroxyethyl)azadialkyl)dioctanoate, reference compound]
Relative light unit (RLU) (293T cells [3]): 1332014 RLU
Multiples of values that equivalent to YK-201 (293T cells [3]): 21.38
Multiples of values that equivalent to YK-202 (293T cells [3]): 22.49
Ratio relative to SM-102 (293T cells [3]): 0.80
Cell survival rate (293T cells [4]): 70.10%
average radiation intensity (mRNA expression) (female BALB/C mice; 6 h): 594050
average radiation intensity (mRNA expression) (female BALB/C mice; 24 h): 110870
average radiation intensity (mRNA expression) (female BALB/C mice; 48 h): 32074
average radiation intensity (mRNA expression) (female BALB/C mice; 7 d): 5827
